In US20150057316A1, “NOVEL SULFONATE-BASED TRIMEBUTINE SALTS” (GICARE PHARMA INC., priority 2012, published 2015):
Where a name gives a salt, the structure may show the parent alone. Read-outs that look alike come from different tables or passages of the source.

What was measured:
Caco-2 cells = assay: Caco-2 bidirectional permeability; assay type: in vitro ADME, human; conditions: for Efflux ratio: (Papp B − A)/(Papp A − B); for % Recovery A − B / Papp A − B: apical to basolateral; for % Recovery A − B / Papp A − B / % Recovery B − A / Papp B − A: 2-hr; for % Recovery B − A / Papp B − A: basolateral to apical; for Permeability: class from Papp A-B; for Significant Efflux: significant: efflux ratio above 3.0 and Papp B-A >1.0×10^−6 cm/s
Excerpt: (§1) Such a procedure helps understanding the suitability of the compound for oral dosing by measuring the rate of transport of the molecule across the Caco-2 cells, which have characteristics that resemble intestinal epithelial cells. Transport in both directions (apical to basolateral (A-B) and basolateral to apical (B-A)) across the cell monolayer was monitored over a 2-hr time period in order to evaluate the efflux ratio, an indicator of whether the compound undergoes significant active efflux or not. The permeability coefficient (Papp) is calculated from the equation: […]
(§2) Where dQ/dt is the rate of permeation of the drug across the cells, Co is the donor compartment concentration at time zero and A is the area of the cell monolayer. Co is obtained from analysis of the dosing solution at the start of the experiment. The analysis method used was LCMS quantification.
(§3) A permeability of (Papp A-B)<1.0×10^−6 cm/s is considered low, whereas a permeability of (Papp A-B)>1.0×10^−6 cm/s is considered high. A significant efflux is generally associated with an efflux ratio above 3.0 and a (Papp B-A)>1.0×10^−6 cm/s in these assay conditions.

[1] = Caco-2 bidirectional permeability; assay type: in vitro ADME, human; conditions: human; for efflux ratio at 2 h: (Papp B − A)/(Papp A − B)
Excerpt: as §1, §2, §3

[2] = 100 μM, 37° C.; simulated gastric fluid pH 1.2 up to 60 min, simulated intestinal fluid pH 6.8 and acetate buffer pH 5 up to 180 min
Procedure: Pyridinium 3-thiocarbamoyl-benzenesulfonate and pyridinium 4-thiocarbamoyl-benzenesulfonate (100 μM) were separately incubated at 37° C. in simulated gastric fluid (pH 1.2; without pepsin) up to 60 min, in simulated intestinal fluid (pH 6.8, without procreatin) up to 180 min, and in acetate buffer (pH 5) up to 180 min. At time points of 0, 30, 60, 120 and 180 min, an aliquot of 10 μL of samples were removed and added into vials containing […] internal standard (labetalol) in a mixture of 25:75 acetonitrile:water. Samples were analyzed by HPLC-MS/MS (ESI-, MRM) to monitor disappearance of its counter-ion over the time.

[3] = quantification of counter-ion and metabolites in urine and feces of rats; assay type: in vivo; conditions: 500 mg/kg p.o., 48 hr collection
Procedure: A preliminary toxicological evaluation of the compound was done in 250-300 g male Sprague-Dawley rats. Animals were randomized into one of three dosing group, i.e. 250, 500 or 1,000 mg/kg administered by oral gavage. Following administration of the test article, animals were observed hourly for the first 8 hr post-dosing for clinical signs and twice daily thereafter until termination on Day 7. Three animals per group were sacrificed by exsanguination under general anesthesia at 24-hr post dosing or on Day 7 and a gross necropsy was performed in all animals. Additionally, all three rats having received the 500 mg/kg dose and scheduled for sacrifice on Day 7 were placed in individual metabolic cages immediately following test article administration, in order to collect feces and urine during 48 hr. Blood samples were collected terminally from each rat for hematology and serum chemistry evaluation.
After proper urine and feces samples preparation, trimebutine 3-thiocarbamoyl-benzenesulfonate and its two metabolites were assayed by HPLC-MS/MS (ESI-), in MRM mode. Calibration curves were prepared for each analyte, in both matrices (diluted blank urine and diluted blank feces).

dog hepatocytes = assay: in-vitro metabolism over dog hepatocytes; conditions: 10 μM, up to 120 min at 37° C.
Procedure: (§4) Human, dog and rat cryopreserved hepatocytes (Celsis-IVT; n=10 pooled donors) were thawed according to the recommended protocol of the cell provider. Cells were then diluted to 1 million viable cells per mL, plated in a 96-well plate (100 μL per well), and pre-incubated 20 min at 37° C. under 95:5 O2:CO2 atmosphere. Following addition of test compounds (10 μM; 1 μL of 1 mM stock solution (95:5 acetonitrile/DMSO) per well), cells were incubated with lid on up to 120 min at 37° C. under 95:5 O2:CO2 atmosphere. At time points 0, 15, 60 and 120 min, 100 μL of acetonitrile containing an internal standard (1 μM labetalol) was added to quench incubates, and the plate was centrifuged (5 min; 15K rpm). Supernatant was diluted 1:2 with water and analyzed by HPLC-MS/MS (ESI-). The MS2 scan mode was used instead of the MRM mode, in order to manually extract the Extracted Ion Current (EIC) of two potential metabolites: 3-cyanobenzenesulfonate and sodium 3-sulfobenzoate.

rat hepatocytes = assay: in-vitro metabolism over rat hepatocytes; conditions: 10 μM, up to 120 min at 37° C.
Procedure: as §4

human hepatocytes = assay: in-vitro metabolism over human hepatocytes; conditions: 10 μM, up to 120 min at 37° C.
Procedure: as §4

[4] = solid-state stability of trimebutine salts of carboxylic acids; conditions: 1:1 molar ratio; salts dissociate with heat and/or time
Sprague-Dawley rats = assay: p.o. pharmacokinetic study in rats, toxicological assessment; assay type: in vivo; conditions: single dose of 230 and 460 mg/kg p.o.
Procedure: In order to evaluate the absolute bioavailability of trimebutine 4-toluenesulfonate (Example 22), an in-vivo pharmacological study was carried out in 6 Sprague-Dawley rats, which were administered a single dose of 230 and 460 mg/kg of the compound by the oral gavage route (p.o.). During this study, assessments included mortality checks and clinical observations. Blood samples were also collected for pharmacokinetic evaluations at 10 time points.

[5] = cited from earlier work
mu-opioid receptors = conditions: cited from earlier work
kappa-opioid receptors = kappa-opioid receptors (Cavia porcellus, UniProt P41144); conditions: cited from earlier work
[6] = Caco-2, apical to basolateral, 2-hr, read-out: % Recovery A − B
[7] = Caco-2, apical to basolateral, 2-hr, read-out: Papp A − B
[8] = Caco-2, class from Papp A-B, read-out: Permeability
[9] = Caco-2, basolateral to apical, 2-hr
[10] = Caco-2, basolateral to apical, 2-hr, read-out: % Recovery B − A

kappa-opioid receptors, sequence (P41144 whole entry): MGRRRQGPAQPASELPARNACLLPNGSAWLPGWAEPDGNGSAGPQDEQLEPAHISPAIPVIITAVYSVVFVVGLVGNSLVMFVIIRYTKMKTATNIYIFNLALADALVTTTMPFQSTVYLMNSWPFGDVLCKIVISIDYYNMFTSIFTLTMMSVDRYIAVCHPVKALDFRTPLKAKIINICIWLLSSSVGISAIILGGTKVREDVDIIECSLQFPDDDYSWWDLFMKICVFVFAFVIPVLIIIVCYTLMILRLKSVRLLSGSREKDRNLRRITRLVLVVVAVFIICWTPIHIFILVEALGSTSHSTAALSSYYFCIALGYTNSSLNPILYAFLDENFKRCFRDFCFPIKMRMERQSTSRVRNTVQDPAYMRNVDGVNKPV

Molecule: NC(=O)c1cccc(S(=O)(=O)O)c1 (as salt: potassium)
- melting point: 223 °C

Molecule: O=S(=O)(O)c1ccccn1 [Example 7, 2-Pyridinesulfonic acid]
- melting point: 131 °C

Molecule: CCC(COC(=O)c1cc(OC)c(OC)c(OC)c1)(c1ccccc1)N(C)C (centres unmarked)
- Efflux ratio (Caco-2 cells): 1.0
- % Recovery A − B (Caco-2 cells): 51%
- Papp A − B (Caco-2 cells): 2.32e-05 cm/s
- % Recovery B − A (Caco-2 cells): 62%
- Papp B − A (Caco-2 cells): 2.43e-05 cm/s
- Permeability (Caco-2 cells): High (a permeability of (Papp A-B)>1.0×10^−6 cm/s is considered high)

Molecule: O=C([O-])c1cccc(S(=O)(=O)O)c1.[Na+] [Sodium 3-sulfobenzoate, reference compound]
- recovery at 2 h [1, 6]: 93%
- Papp A→B at 2 h [1, 7]: 0.59 ×10⁻⁶ cm/s
- Papp A→B at 2 h [1, 8]: < 1 ×10⁻⁶ cm/s
- efflux ratio at 2 h ([1]; Caco-2): 1
- Papp B→A at 2 h [1, 9]: 0.59 ×10⁻⁶ cm/s
- recovery at 2 h [1, 10]: 115%
- Significant Efflux (Caco-2 cells): No

Molecule: N#Cc1cccc(S(=O)(=O)O)c1 [Example 14, 3-Cyano benzenesulfonic acid]
- melting point: 129 °C

Molecule: pyridinium 4-thiocarbamoylbenzenesulfonate
- stability of counter-ion (disappearance over time) [2]: stable in all these media
- % Recovery A − B (Caco-2 cells): 106%
- Papp A − B (Caco-2 cells): <5.4e-07 cm/s
- % Recovery B − A (Caco-2 cells): 116%
- Papp B − A (Caco-2 cells): <6.8e-07 cm/s
- Permeability (Caco-2 cells): Low (A permeability of (Papp A-B)<1.0×10^−6 cm/s is considered low)
- Significant Efflux (Caco-2 cells): No

Molecule: NC(=S)c1cccc(S(=O)(=O)O)c1
- Efflux ratio (Caco-2 cells): 1.2
- % Recovery A − B (Caco-2 cells): 63%
- Papp A − B (Caco-2 cells): 2.8e-07 cm/s
- % Recovery B − A (Caco-2 cells): 82%
- Papp B − A (Caco-2 cells): 3.3e-07 cm/s
- Permeability (Caco-2 cells): Low (A permeability of (Papp A-B)<1.0×10^−6 cm/s is considered low)
- Significant Efflux (Caco-2 cells): No
- 3-cyanobenzenesulfonate found in feces, share of administered dose [3]: about 4%
- 3-sulfobenzoate found, share of administered dose [3]: 0.3%
- share of total counter-ion administered orally found in feces [3]: About 80%
- share of total counter-ion administered orally found in urine [3]: ~20%
- metabolic stability (dog hepatocytes): remained intact
- metabolic stability (rat hepatocytes): remained intact
- metabolic stability (human hepatocytes): remained intact

Molecule: O=C(O)c1ccccc1 [benzoic acid]
- stability of the trimebutine salt in the solid state [4]: unstable salt

Molecule: CCC(COC(=O)c1cc(OC)c(OC)c(OC)c1)(c1ccccc1)N(C)C (centres unmarked) [Example 22, trimebutine 4-toluenesulfonate salt]
- recovery at 2 h [1, 6]: 58%
- Papp A→B at 2 h [1, 7]: 23.9 ×10⁻⁶ cm/s
- Papp A→B at 2 h [1, 8]: > 1 ×10⁻⁶ cm/s
- efflux ratio at 2 h ([1]; Caco-2): 0.9
- Papp B→A at 2 h [1, 9]: 21.7 ×10⁻⁶ cm/s
- recovery at 2 h [1, 10]: 76%
- Permeability (Caco-2 cells): high
- Significant Efflux (Caco-2 cells): No
- bodyweight (Sprague-Dawley rats): no change in bodyweight
- death (Sprague-Dawley rats): no death reported
- toxicity (Sprague-Dawley rats): no indication of any toxicity

Molecule: NC(=S)c1ccc(C(=O)O)cc1 [4-thiocarbamoylbenzoic acid]
- pKa [5]: ~3.3
- stability of the trimebutine salt in the solid state [4]: unstable salt

Molecule: CCC(COC(=O)c1cc(OC)c(OC)c(OC)c1)(c1ccccc1)N(C)C (centres unmarked) [Trimebutine, 3,4,5-trimethoxybenzoic acid 2-(dimethylamino)-2-phenylbutylester]
- pKa [5]: ~6.25
- affinity to mu-opioid receptors (mu-opioid receptors): micromolar
- affinity to kappa-opioid receptors (kappa-opioid receptors): micromolar
- metabolic stability (dog hepatocytes): capable of metabolizing trimebutine
- metabolic stability (rat hepatocytes): capable of metabolizing trimebutine
- metabolic stability (human hepatocytes): capable of metabolizing trimebutine

Molecule: O=S(=O)(O)c1cccnc1 [Example 8, 3-Pyridinesulfonic acid]
- melting point: 119 °C

Molecule: pyridinium 3-cyanobenzenesulfonate [Pyridinium 3-cyano-benzenesulfonate]
- Efflux ratio (Caco-2 cells): 2.0
- % Recovery A − B (Caco-2 cells): 84%
- Papp A − B (Caco-2 cells): 4.4e-07 cm/s
- % Recovery B − A (Caco-2 cells): 72%
- Papp B − A (Caco-2 cells): 8.7e-07 cm/s
- Permeability (Caco-2 cells): Low (A permeability of (Papp A-B)<1.0×10^−6 cm/s is considered low)
- Significant Efflux (Caco-2 cells): No
